According to patent USRE37839E1, “O-benzyloxime ethers and crop protection agents containing these compounds” (BASF Aktiengesellschaft, priority 1990, dated 2002):

What was measured:
Plasmopara viticola = assay: Action on Peronospora in grapes; conditions: 0.025 wt % spray liquors; leaves infected 8 days after spraying
Description: Leaves of potted vines of the “Müller Thurgau” variety were sprayed with aqueous liquors containing (dry basis) 80% of active ingredient and 20% of emulsifier. To assess the duration of action of the active ingredients, the plants were, after the sprayed-on layer had dried, set up in the greenhouse for 8 days. Only then were the leaves infected with a zoospore suspension of Plasmopara viticola. The vines were then placed for 48 hours in a water-vapor-saturated chamber at 24° C. and then for 5 days in a greenhouse at from 20° to 30° C. To accelerate the sporangiophore discharge, the plants were then again set up in the moist chamber for 16 hours. The extent to which the leaves had been attacked was then assessed.

[1] = system: brown rust (Puccinia recondita); assay: Action on wheat brown rust; assay type: in vivo, Puccinia recondita on wheat seedlings ("Kanzler"); conditions: 0.025 wt % spray liquors; sprayed 24 h after infection; assessed after 8 days
Description: Leaves of pot-grown wheat seedlings of the “Kanzler” variety were dusted with spores of brown rust (Puccinia recondita). The pots were then placed for 24 hours at 20° to 22° C. in a high-humidity (90-95%) chamber. During this period the spores germinated and the germ tubes penetrated the leaf tissue. […] After the sprayed-on layer had dried, the plants were set up in the greenhouse at 20° to 22° C. and a relative humidity of 65 to 70%. The extent of rust fungus spread on the leaves was assessed after 8 days.

Pyricularia oryzae = assay type: in vivo, Pyricularia oryzae on rice seedlings ("Bahia"); conditions: 0.05 wt % spray liquors; protective, inoculated 24 hours after spraying; assessed after 6 days
[2] = system: Plutella maculipennis (diamondback moth); assay: Plutella maculipennis (diamondback moth); ingestion-inhibiting action; assay type: in vivo; conditions: Plutella maculipennis 4th-stage caterpillars on dipped kohlrabi leaves, after 48 hours
Description: Young kohlrabi leaves are dipped for 3 seconds into aqueous solutions of the candidate compounds, and then placed on a round filter paper 9 cm in diameter which has been moistened with 0.5 ml of water. The filter paper is then placed in a Petri dish 10 cm in diameter. 10 caterpillars in the 4th larval stage are then placed on each leaf and the Petri dish is closed. Ingestion inhibition is determined in % after 48 hours.

[3] = system: Musca domestica (housefly); assay: Musca domestica (housefly); continuous contact action; assay type: in vivo; conditions: continuous contact in Petri dish, counted after 24 hours
Description: Both the tops and bottoms of Petri dishes 10 cm in diameter were lined with a total of 1 ml of acetonic solutions of the active ingredients. After the solvent had evaporated (about 30 mins.), 10 files and absorbent cotton steeped in water were introduced into each dish and the dishes closed. The flies in supine position were counted after 24 hours.
If a kill rate of 80 to 100% occurs at a concentration of 0.01 mg/dish, the test is continued with falling concentrations.

## COC=C(C(=O)OC)c1ccccc1CON=C(c1ccccc1)C1CC1 [14 (Table I)]
Plasmopara viticola
  fungicidal action: 95%
[1]
  fungicidal action: 95%

## COC=C(C(=O)OC)c1ccccc1CON=C(c1ccc(Cl)cc1)C1CC1 [16 (Table I)]
Plasmopara viticola
  fungicidal action: 95%
[1]
  fungicidal action: 95%

## COC=C(C(=O)OC)c1ccccc1CON=C(c1ccc(OC)cc1)C1CC1 [17 (Table I)]
Plasmopara viticola
  fungicidal action: 95%
[1]
  fungicidal action: 95%

## CON=C(C(=O)OC)c1ccccc1CON=C(c1ccc(OC)cc1)C1CC1 [17 (Table II)]
Plasmopara viticola
  fungicidal action: 95%
[1]
  fungicidal action: 95%
Pyricularia oryzae
  fungicidal action: 100%

## COC=C(C(=O)OC)c1ccccc1CON=C(C#N)C(C)C [49 (Table I)]
Plasmopara viticola
  fungicidal action: 95%
[1]
  fungicidal action: 95%

## COC=C(C(=O)OC)c1ccccc1CON=C(C#N)OC1CCCCO1 (stereo not shown) [429 (Table I)]
Plasmopara viticola
  fungicidal action: 95%
[1]
  fungicidal action: 95%
Pyricularia oryzae
  fungicidal action: 100%

## COC=C(C(=O)OC)c1ccccc1CON=C(C)c1cccc(C)c1 [616 (Table I)]
Plasmopara viticola
  fungicidal action: 95%
[1]
  fungicidal action: 95%
Pyricularia oryzae
  fungicidal action: 100%

## CON=C(C(=O)OC)c1ccccc1COc1ccccc1 [A, 2-(phenoxymethyl)-phenylglyoxylic acid-methyl ester-O-methyloxime, reference compound]
Plasmopara viticola
  fungicidal action: 50%
[1]
  fungicidal action: 50%

## COC=C(C(=O)OC)c1ccccc1CON=C(c1ccc(F)cc1)C1CC1 [Compound no. 15 (Table I)]
Plasmopara viticola
  fungicidal action: 95%
[1]
  fungicidal action: 95%

## CON=C(C(=O)OC)c1ccccc1CON=C(c1ccc(F)cc1)C1CC1 [Compound no. 15 (Table II)]
Plasmopara viticola
  fungicidal action: 95%
Pyricularia oryzae
  fungicidal action: 100%

## CON=C(C(=O)OC)c1ccccc1CON=C(c1ccc(Cl)cc1)C1CC1 [Compound no. 16 (Table II)]
Plasmopara viticola
  fungicidal action: 95%
Pyricularia oryzae
  fungicidal action: 100%

## CON=C(C(=O)OC)c1ccccc1CON=C(C#N)C(C)(C)OC [Compound no. 36 (Table II)]
Plasmopara viticola
  fungicidal action: 95%

## CON=C(C(=O)OC)c1ccccc1CON=C(C#N)C(C)(C)SC [Compound no. 43 (Table II)]
Plasmopara viticola
  fungicidal action: 95%

## CON=C(C(=O)OC)c1ccccc1CON=C(C#N)C(C)C [Compound no. 49 (Table II)]
Plasmopara viticola
  fungicidal action: 95%

## CON=C(C(=O)OC)c1ccccc1CON=C(C#N)C1CC1 [Compound no. 56 (Table II)]
Plasmopara viticola
  fungicidal action: 95%

## CON=C(C(=O)OC)c1ccccc1CON=C(C#N)c1ccccc1 [Compound no. 117 (Table II)]
Plasmopara viticola
  fungicidal action: 95%

## COC=C(C(=O)OC)c1ccccc1CON=C(C#N)c1ccc(F)c(Cl)c1 [Compound no. 156 (Table I)]
Plasmopara viticola
  fungicidal action: 95%

## CON=C(C(=O)OC)c1ccccc1CON=C(C#N)OC1CCCCO1 (stereo not shown) [Compound no. 429 (Table II)]
Plasmopara viticola
  fungicidal action: 95%

## CON=C(C(=O)OC)c1ccccc1CON=C(C)c1ccc(F)cc1 [Compound no. 571 (Table II)]
Pyricularia oryzae
  fungicidal action: 100%

## COC=C(C(=O)OC)c1ccccc1CON=C(C)c1ccccc1Cl [Compound no. 573 (Table I)]
Plasmopara viticola
  fungicidal action: 95%
[1]
  fungicidal action: 95%

## COC=C(C(=O)OC)c1ccccc1CON=C(C)c1ccc(Cl)cc1Cl [Compound no. 578 (Table I)]
Plasmopara viticola
  fungicidal action: 95%
[1]
  fungicidal action: 95%

## COC=C(C(=O)OC)c1ccccc1CON=C(C)c1cc(Cl)ccc1Cl [Compound no. 579 (Table I)]
Plasmopara viticola
  fungicidal action: 95%

## COC=C(C(=O)OC)c1ccccc1CON=C(C)c1cc(Cl)cc(Cl)c1 [Compound no. 582 (Table I), Methyl 3-methoxy-2-[2′-[1″-(3′″,5′″-dichlorophenyl)-1″-methyl]-iminooxymethyl]-phenylacrylate]
Plasmopara viticola
  fungicidal action: 95%
[1]
  fungicidal action: 95%

## CON=C(C(=O)OC)c1ccccc1CON=C(C)c1cc(Cl)cc(Cl)c1 [Compound no. 582 (Table II), Methyl 2-methoximino-2-[2′-(1″-(3′″,5′″-dichlorophenyl)-1″-methyl)-iminooxymethyl]-phenylacetate]
Plasmopara viticola
  fungicidal action: 95%
Pyricularia oryzae
  fungicidal action: 100%

## COC=C(C(=O)OC)c1ccccc1CON=C(C)c1ccc(Cl)c(Cl)c1Cl [Compound no. 583 (Table I)]
Plasmopara viticola
  fungicidal action: 95%
Pyricularia oryzae
  fungicidal action: 100%

## CON=C(C(=O)OC)c1ccccc1CON=C(C)c1ccc(Cl)c(Cl)c1Cl [Compound no. 583 (Table II)]
Pyricularia oryzae
  fungicidal action: 100%

## COC=C(C(=O)OC)c1ccccc1CON=C(C)c1cccc(Br)c1 [Compound no. 592 (Table I)]
Plasmopara viticola
  fungicidal action: 95%
[1]
  fungicidal action: 95%
Pyricularia oryzae
  fungicidal action: 100%

## CON=C(C(=O)OC)c1ccccc1CON=C(C)c1cccc(Br)c1 [Compound no. 592 (Table II)]
Pyricularia oryzae
  fungicidal action: 100%

## COC=C(C(=O)OC)c1ccccc1CON=C(C)c1ccc(Br)cc1 [Compound no. 593 (Table I), Methyl 3-methoxy-2-[2′-(1″-(4′″-bromophenyl)-1″-methyl)-iminooxymethyl]-phenylacrylate]
Plasmopara viticola
  fungicidal action: 95%
Pyricularia oryzae
  fungicidal action: 100%

## CON=C(C(=O)OC)c1ccccc1CON=C(C)c1ccc([N+](=O)[O-])cc1 [Compound no. 614 (Table II), Methyl 2-methoximino-2-[2′-(1″-(4′″-nitrophenyl)-1″-methyl)-iminooxymethyl]-phenylacetate]
Plasmopara viticola
  fungicidal action: 95%

## CON=C(C(=O)OC)c1ccccc1CON=C(C)c1ccc(C(C)(C)C)cc1 [Compound no. 644 (Table II)]
Plasmopara viticola
  fungicidal action: 95%
[1]
  fungicidal action: 95%
Pyricularia oryzae
  fungicidal action: 100%

## COC=C(C(=O)OC)c1ccccc1CON=C(C)c1ccccc1C(F)(F)F [Compound no. 704 (Table I)]
Plasmopara viticola
  fungicidal action: 95%
[1]
  fungicidal action: 95%

## COC=C(C(=O)OC)c1ccccc1CON=C(C)c1cccc(C(F)(F)F)c1 [Compound no. 705 (Table I)]
Plasmopara viticola
  fungicidal action: 95%
[1]
  fungicidal action: 95%

## COC=C(C(=O)OC)c1ccccc1CON=C(C)c1ccc(C(F)(F)F)cc1 [Compound no. 706 (Table I)]
Plasmopara viticola
  fungicidal action: 95%
Pyricularia oryzae
  fungicidal action: 100%

## CON=C(C(=O)OC)c1ccccc1CON=C(C)c1ccc(Oc2ccccc2)cc1 [Compound no. 769 (Table II)]
Pyricularia oryzae
  fungicidal action: 100%

## CON=C(C(=O)OC)c1ccccc1CON=C(C)c1ccc(C2CCCCC2)cc1 [Compound no. 782 (Table II)]
Pyricularia oryzae
  fungicidal action: 100%

## COC=C(C(=O)OC)c1ccccc1CON=C(c1ccc(Cl)cc1)C1CC1 [compound 16]
[2]; application rate 400 ppm
  Mortality in %: 80%

## COC=C(C(=O)OC)c1ccccc1CON=C(C#N)C(C)(C)OC [compound 36]
[3]; application rate 1.0 ppm
  Mortality in %: 80%
[2]; application rate 200 ppm
  Mortality in %: 80%

## CCOC(C)(C)C(C#N)=NOCc1ccccc1C(=COC)C(=O)OC [compound 37]
[3]; application rate 0.1 ppm
  Mortality in %: 100%

## COC=C(C(=O)OC)c1ccccc1CON=C(C#N)C(C)C [compound 49]
[3]; application rate 0.1 ppm
  Mortality in %: 80%
[2]; application rate 200 ppm
  Mortality in %: 80%

## COC=C(C(=O)OC)c1ccccc1CON=C(C#N)OC1CCCCO1 (stereo not shown) [compound 429]
[2]; application rate 1000 ppm
  Mortality in %: 80%

## COC=C(C(=O)OC)c1ccccc1CON=C(C)c1cc(Cl)cc(Cl)c1 [compound 582]
[3]; application rate 0.1 ppm
  Mortality in %: 80%
[2]; application rate 400 ppm
  Mortality in %: 100%

## COC=C(C(=O)OC)c1ccccc1CON=C(C)c1cccc(Br)c1 [compound 592]
[2]; application rate 400 ppm
  Mortality in %: 80%

## COC=C(C(=O)OC)c1ccccc1CON=C(C)c1ccc(Br)cc1 [compound 593]
[3]; application rate 0.1 ppm
  Mortality in %: 60%
[2]; application rate 1000 ppm
  Mortality in %: 80%

## COC=C(C(=O)OC)c1ccccc1CON=C(C)c1cccc(C(F)(F)F)c1 [compound 705]
[3]; application rate 0.1 ppm
  Mortality in %: 100%
[2]; application rate 400 ppm
  Mortality in %: 80%

## COC=C(C(=O)OC)c1ccccc1CON=C(C)c1ccc(C(F)(F)F)cc1 [compound 706]
[3]; application rate 0.1 ppm
  Mortality in %: 100%
[2]; application rate 400 ppm
  Mortality in %: 80%
